From US20030162222A1, “Method for selecting enzyme inhibitors” (priority 2000, published 2003)

Tests used:
[1] = system: 32D cells which express wt Bcr-Abl; experiment: Proliferation and survival of 32D cells expressing wt Bcr-Abl in the absence of interleukin-3; type: cell-based, murine; conditions: 32D cells expressing Bcr-Abl wt; no interleukin-3; PP1 25 μM or STI571 1 μM
Experimental: (§1) Bcr-Abl is a constitutionally active tyrosine kinase which induces different forms of leukaemia in the animal model and humans.
(§2) The example is carried out by transfixing 32D cells with a plasmid by electroporation, i.e. with the aid of a current pulse. The plasmid codes for either wt Bcr-Abl or e.g. for the mutant T315M. These plasmids additionally carry a resistance marker; in this case a puromycin resistance gene. Transfixed cells are therefore selected by means of puromycin.
(§3) The cells are then characterised biologically. For this purpose interleukin-3 is removed from them as an essential survival and growth factor.
(§4) Both substances prevent both proliferation and survival of cells which express Bcr-Abl wt, and do so to the same extent (FIGS. 17 and 18).

[2] = system: 32D cells which express the mutant Bcr-Abl T315M; experiment: Proliferation and survival of 32D cells expressing mutant Bcr-Abl T315M in the absence of interleukin-3; type: cell-based, murine; conditions: 32D cells expressing Bcr-Abl T315M; no interleukin-3; PP1 25 μM or STI571 1 μM
Experimental: as §1, §2, §3, §4

Src kinases = conditions: partly from the literature; cited from earlier work

Cc1ccc(-c2nn(C(C)(C)C)c3ncnc(N)c23)cc1 [PP1]
proliferation of cells [1]: prevent | proliferation (cell growth) [2]: complete cessation of cell growth | inhibition of Src kinases (Src kinases): inhibited
